The structures appear in SMILES notation. pIC50: −log10 of the molar value.

The results in this text go back to patent US20100105655A1, “NOVEL COMPOUNDS 515” (ASTRAZENECA AB, priority 2008, published 2010).

The target of the test is T1, IGFR kinase (Homo sapiens, UniProt P08069).
T1 construct: purchased Millipore
The test is described as follows: Enzyme assay (c), IGFR kinase, Caliper LabChip. Type of test: biochemical. The conditions noted are these: 30 nM IGFR kinase, 6 uM ATP, 3 uM peptide mix; read-out: IGFR IC50.

T1 sequence (P08069 31-1367): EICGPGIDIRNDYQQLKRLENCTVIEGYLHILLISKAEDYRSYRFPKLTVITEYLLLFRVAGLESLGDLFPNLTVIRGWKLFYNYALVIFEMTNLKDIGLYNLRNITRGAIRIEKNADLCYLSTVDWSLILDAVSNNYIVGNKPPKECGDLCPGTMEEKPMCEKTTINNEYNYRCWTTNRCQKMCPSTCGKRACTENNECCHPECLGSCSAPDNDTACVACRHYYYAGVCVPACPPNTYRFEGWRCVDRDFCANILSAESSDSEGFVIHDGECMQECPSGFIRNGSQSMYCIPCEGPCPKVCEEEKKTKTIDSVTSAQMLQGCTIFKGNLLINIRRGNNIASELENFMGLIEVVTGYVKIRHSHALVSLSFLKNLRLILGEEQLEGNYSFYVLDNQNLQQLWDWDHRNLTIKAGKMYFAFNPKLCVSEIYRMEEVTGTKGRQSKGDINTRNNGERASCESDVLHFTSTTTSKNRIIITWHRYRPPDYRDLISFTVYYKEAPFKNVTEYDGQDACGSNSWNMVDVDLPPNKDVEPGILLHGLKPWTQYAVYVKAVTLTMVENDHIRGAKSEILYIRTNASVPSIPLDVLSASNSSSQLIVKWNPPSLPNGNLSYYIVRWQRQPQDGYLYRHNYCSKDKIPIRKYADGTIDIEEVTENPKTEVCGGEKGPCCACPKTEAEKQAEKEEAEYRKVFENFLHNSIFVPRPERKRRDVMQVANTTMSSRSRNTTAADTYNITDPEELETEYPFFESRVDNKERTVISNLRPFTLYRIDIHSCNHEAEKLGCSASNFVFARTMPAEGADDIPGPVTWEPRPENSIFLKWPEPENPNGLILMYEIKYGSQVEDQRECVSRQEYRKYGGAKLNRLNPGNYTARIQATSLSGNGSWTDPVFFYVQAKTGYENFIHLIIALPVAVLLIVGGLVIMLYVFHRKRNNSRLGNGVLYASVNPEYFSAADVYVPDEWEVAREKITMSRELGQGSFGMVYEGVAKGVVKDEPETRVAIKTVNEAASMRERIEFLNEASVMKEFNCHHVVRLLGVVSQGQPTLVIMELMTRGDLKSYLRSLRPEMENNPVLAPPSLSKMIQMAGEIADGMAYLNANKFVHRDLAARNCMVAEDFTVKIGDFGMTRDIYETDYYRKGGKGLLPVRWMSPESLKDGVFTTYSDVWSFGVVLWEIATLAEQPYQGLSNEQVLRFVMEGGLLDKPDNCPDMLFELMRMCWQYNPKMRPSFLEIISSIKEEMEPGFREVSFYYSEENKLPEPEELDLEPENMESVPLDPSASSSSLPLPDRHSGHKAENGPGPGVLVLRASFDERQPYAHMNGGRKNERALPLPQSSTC

For `CC(=O)N1CCN(c2ccc(Nc3ncc(Cl)c(-c4cnc5ccccn45)n3)c(OC(C)C)c2)CC1` [Example 3.34, 1-[4-[4-[(5-chloro-4-imidazo[1,2-a]pyridin-3-yl-pyrimidin-2-yl)amino]-3-isopropoxy-phenyl]piperazin-1-yl]ethanone], the pIC50 (in general, the IC50 on a negative log10 scale, so that one unit is a factor of ten) was 7.66.

With `COc1cc(N2CCN(C(=O)[C@@H](C)O)CC2)ccc1Nc1ncc(Cl)c(-c2cnc3cc(C)ccn23)n1` [Example 257, (2R)-1-[4-[4-[[5-chloro-4-(7-methylimidazo[1,2-a]pyridin-3-yl)pyrimidin-2-yl]amino]-3-methoxy-phenyl]piperazin-1-yl]-2-hydroxy-propan-1-one], the negative-log IC50 (pIC50) is 8.00.

Turning to `COc1cc(C2CCN(C(=O)CO)CC2)ccc1Nc1ncc(C#N)c(-c2cnn3ccccc23)n1` [Example 240, 2-[4-[1-(2-hydroxyacetyl)-4-piperidyl]-2-methoxy-anilino]-4-pyrazolo[1,5-a]pyridin-3-yl-pyrimidine-5-carbonitrile], the negative-log IC50 (pIC50) was 8.52.

Turning to `COc1cc(N2CCN(CC(=O)N(C)CCO)CC2)ccc1Nc1ncc(Cl)c(-c2cnc3ccccn23)n1` [Example 67, 2-[4-[4-[(5-chloro-4-imidazo[1,2-a]pyridin-3-yl-pyrimidin-2-yl)amino]-3-methoxy-phenyl]piperazin-1-yl]-N-(2-hydroxyethyl)-N-methyl-acetamide], the pIC50 was 8.15.

Consider `COc1cc(N2CCN(C(C)=O)CC2)ccc1Nc1ncc(C)c(-c2cnc3ccccn23)n1` [Example 97, 1-[4-[4-[(4-imidazo[1,2-a]pyridin-3-yl-5-methyl-pyrimidin-2-yl)amino]-3-methoxy-phenyl]piperazin-1-yl]ethanone], for which the negative-log IC50 (pIC50) is 7.33.

As for `COc1cc(C2CCNCC2)ccc1Nc1ncc(C)c(-c2cnc3c(F)cccn23)n1` [Example 197, 4-(8-fluoroimidazo[1,2-a]pyridin-3-yl)-N-[2-methoxy-4-(4-piperidyl)phenyl]-5-methyl-pyrimidin-2-amine], the pIC50 was 7.89.

`COc1cc(N2CCN(C(=O)CO)CC2)ccc1Nc1ncc(Cl)c(-c2cnn3ccccc23)n1` [Example 130, 1-[4-[4-[(5-chloro-4-pyrazolo[1,5-a]pyridin-3-yl-pyrimidin-2-yl)amino]-3-methoxy-phenyl]piperazin-1-yl]-2-hydroxy-ethanone]: the negative-log IC50 (pIC50) is 8.52.

In the case of `COc1cc(N2CCN(C(=O)CO)CC2)ccc1Nc1ncc(Cl)c(-c2cnc3c(F)cccn23)n1` [Example 180, 1-[4-[4-[[5-chloro-4-(8-fluoroimidazo[1,2-a]pyridin-3-yl)pyrimidin-2-yl]amino]-3-methoxy-phenyl]piperazin-1-yl]-2-hydroxy-ethanone], the negative logarithm of the IC50 (pIC50) is 7.60.

Regarding `COc1cc(OC2CCN(C(C)=O)CC2)ccc1Nc1ncc(C)c(-c2cnc3ccccn23)n1` [Example 103, 1-[4-[4-[(4-imidazo[1,2-a]pyridin-3-yl-5-methyl-pyrimidin-2-yl)amino]-3-methoxy-phenoxy]-1-piperidyl]ethanone], the pIC50 is 7.11.

Regarding `COc1cc(N2CCN(C(C)(C)CO)CC2)ccc1Nc1ncc(C)c(-c2cnn3ccccc23)n1` [Example 231, 2-[4-[3-methoxy-4-[(5-methyl-4-pyrazolo[1,5-a]pyridin-3-yl-pyrimidin-2-yl)amino]phenyl]piperazin-1-yl]-2-methyl-propan-1-ol], the pIC50 is 7.70.

On to `CC(=O)N1CCN(c2ccc(Nc3ncc(Cl)c(-c4cnc5ccccn45)n3)c(C)c2C)CC1` [Example 3.32, 1-[4-[4-[(5-chloro-4-imidazo[1,2-a]pyridin-3-yl-pyrimidin-2-yl)amino]-2,3-dimethyl-phenyl]piperazin-1-yl]ethanone], for which the pIC50 was 7.92.

For the compound `COc1cc(OC2CN(C(=O)[C@@H](C)O)C2)ccc1Nc1ncc(Cl)c(-c2cnc3ccccn23)n1` [Example 27.6, (2R)-1-[3-[4-[(5-chloro-4-imidazo[1,2-a]pyridin-3-yl-pyrimidin-2-yl)amino]-3-methoxy-phenoxy]azetidin-1-yl]-2-hydroxy-propan-1-one], the pIC50 was 7.85.

On to `CNCC(=O)N1CCN(c2ccc(Nc3ncc(C)c(-c4cnn5ccccc45)n3)c(OC)c2)CC1` [Example 160, 1-[4-[3-methoxy-4-[(5-methyl-4-pyrazolo[1,5-a]pyridin-3-yl-pyrimidin-2-yl)amino]phenyl]piperazin-1-yl]-2-(methylamino)ethanone], for which the pIC50 is 7.85.

On to `COc1cc(C(C)C(=O)N2CCN(CCO)CC2)ccc1Nc1ncc(Cl)c(-c2cnc3ccccn23)n1` (stereo not drawn) [Example 3.41, 2-[4-[(5-chloro-4-imidazo[1,2-a]pyridin-3-yl-pyrimidin-2-yl)amino]-3-methoxy-phenyl]-1-[4-(2-hydroxyethyl)piperazin-1-yl]propan-1-one], for which the negative-log IC50 (pIC50) was 7.80.

Regarding `COc1cc(OC2CN(C(=O)[C@@H](C)OC)C2)ccc1Nc1ncc(Cl)c(-c2cnc3ccccn23)n1` [Example 27.4, (2R)-1-[3-[4-[(5-chloro-4-imidazo[1,2-a]pyridin-3-yl-pyrimidin-2-yl)amino]-3-methoxy-phenoxy]azetidin-1-yl]-2-methoxy-propan-1-one], the pIC50 is 7.62.

For `COc1cc(N2CCCOCC2)ccc1Nc1ncc(F)c(-c2cnc3ccccn23)n1` [Example 84, 5-fluoro-4-imidazo[1,2-a]pyridin-3-yl-N-[2-methoxy-4-(1,4-oxazepan-4-yl)phenyl]pyrimidin-2-amine], the pIC50 was 6.75.

In the case of `COc1cc(C2CCN(C(=O)CO)CC2)ccc1Nc1ncc(Cl)c(-c2cnc3c(F)cccn23)n1` [Example 179, 1-[4-[4-[[5-chloro-4-(8-fluoroimidazo[1,2-a]pyridin-3-yl)pyrimidin-2-yl]amino]-3-methoxy-phenyl]-1-piperidyl]-2-hydroxy-ethanone], the pIC50 was 8.10.

`COc1cc(N2CCN(C(=O)[C@H](C)N)CC2)ccc1Nc1ncc(Cl)c(-c2cnc3cc(C)ccn23)n1` [Example 258, (2S)-2-amino-1-[4-[4-[[5-chloro-4-(7-methylimidazo[1,2-a]pyridin-3-yl)pyrimidin-2-yl]amino]-3-methoxy-phenyl]piperazin-1-yl]propan-1-one]: the negative-log IC50 (pIC50) is 8.30.

`COc1cc(C2CCN(C(C)=O)CC2)ccc1Nc1ncc(OC)c(-c2cnc3ccccn23)n1` [Example 94, 1-[4-[4-[(4-imidazo[1,2-a]pyridin-3-yl-5-methoxy-pyrimidin-2-yl)amino]-3-methoxy-phenyl]-1-piperidyl]ethanone]: the negative logarithm of the IC50 (pIC50) is 6.87.

For `COc1cc(CC(=O)N2CCNCC2)ccc1Nc1ncc(Cl)c(-c2cnc3ccccn23)n1` [Example 34, 2-[4-[(5-chloro-4-imidazo[1,2-a]pyridin-3-yl-pyrimidin-2-yl)amino]-3-methoxy-phenyl]-1-piperazin-1-yl-ethanone], the negative-log IC50 (pIC50) was 7.01.

Regarding `COc1cc(N2CCN(S(=O)(=O)N(C)C)CC2)ccc1Nc1ncc(Cl)c(-c2cnc3ccccn23)n1` [Example 3.7, 4-[4-[(5-chloro-4-imidazo[1,2-a]pyridin-3-yl-pyrimidin-2-yl)amino]-3-methoxy-phenyl]-N,N-dimethyl-piperazine-1-sulfonamide], the pIC50 is 7.96.

Regarding `COc1cc(C2CCN(CC(=O)N(C)C)CC2)ccc1Nc1ncc(Cl)c(-c2cnc3c(F)cccn23)n1` [Example 216, 2-[4-[4-[[5-chloro-4-(8-fluoroimidazo[1,2-a]pyridin-3-yl)pyrimidin-2-yl]amino]-3-methoxy-phenyl]-1-piperidyl]-N,N-dimethyl-acetamide], the negative-log IC50 (pIC50) is 8.70.

For the compound `CNC(=O)C1CC(c2ccc(Nc3ncc(Cl)c(-c4cnc5ccccn45)n3)c(OC)c2)CN1` (stereo not drawn) [Example 3.27, 4-[4-[(5-chloro-4-imidazo[1,2-a]pyridin-3-yl-pyrimidin-2-yl)amino]-3-methoxy-phenyl]-N-methyl-pyrrolidine-2-carboxamide], the negative-log IC50 (pIC50) was 8.22.

Regarding `COc1cc(N2CCN(C(C)=O)CC2)c(C)cc1Nc1ncc(Cl)c(-c2cnc3ccccn23)n1` [Example 278, 1-[4-[4-[(5-chloro-4-imidazo[1,2-a]pyridin-3-yl-pyrimidin-2-yl)amino]-5-methoxy-2-methyl-phenyl]piperazin-1-yl]ethanone], the pIC50 is 8.10.

With `COc1cc(CC(=O)O)ccc1Nc1ncc(Cl)c(-c2cnc3ccccn23)n1` [Example 34A, 2-(4-(5-chloro-4-(imidazo[1,2-a]pyridin-3-yl)pyrimidin-2-ylamino)-3-methoxyphenyl)acetic acid], the negative logarithm of the IC50 (pIC50) is 6.88.

`CNC(=O)[C@H](C)Oc1ccc(Nc2ncc(Cl)c(-c3cnc4c(F)cccn34)n2)c(OC)c1` [Example 218, (2S)-2-[4-[[5-chloro-4-(8-fluoroimidazo[1,2-a]pyridin-3-yl)pyrimidin-2-yl]amino]-3-methoxy-phenoxy]-N-methyl-propanamide]: the negative logarithm of the IC50 (pIC50) was 8.15.

On to `COc1cc(N2CCN(C(=O)[C@@H](C)N)CC2)ccc1Nc1ncc(Cl)c(-c2cnc3c(F)cc(F)cn23)n1` [Example 253, (2R)-2-amino-1-[4-[4-[[5-chloro-4-(6,8-difluoroimidazo[1,2-a]pyridin-3-yl)pyrimidin-2-yl]amino]-3-methoxy-phenyl]piperazin-1-yl]propan-1-one], for which the pIC50 was 8.40.

Consider `COc1cc(N2CCN(C(=O)[C@H](C)N)CC2)ccc1Nc1ncc(Cl)c(-c2cnn3ccccc23)n1` [Example 132, (2S)-2-amino-1-[4-[4-[(5-chloro-4-pyrazolo[1,5-a]pyridin-3-yl-pyrimidin-2-yl)amino]-3-methoxy-phenyl]piperazin-1-yl]propan-1-one], for which the pIC50 is 8.52.

Take `COc1cc(O[C@H]2CCNC2)ccc1Nc1ncc(Cl)c(-c2cnc3ccccn23)n1` [Example 6.6, 5-chloro-4-imidazo[1,2-a]pyridin-3-yl-N-[2-methoxy-4-[(3S)-pyrrolidin-3-yl]oxy-phenyl]pyrimidin-2-amine]: the negative logarithm of the IC50 (pIC50) is 7.85.

For `COCCN(C)Cc1ccc(Nc2ncc(Cl)c(-c3cnc4ccccn34)n2)c(OC)c1` [Example 21.13, 5-chloro-4-imidazo[1,2-a]pyridin-3-yl-N-[2-methoxy-4-[(2-methoxyethyl-methyl-amino)methyl]phenyl]pyrimidin-2-amine], the negative logarithm of the IC50 (pIC50) is 7.49.
